Laboratory results published in paper PMC6478789, “A chemical toolbox for the study of bromodomains and epigenetic signaling” (Nature Communications, 2019).

Experiments:
Type in all cases: biochemical
EP300 = EP300 (Homo sapiens, UniProt Q09472); assay: Histone acetyltransferase (HAT) activity assay; conditions: for activity at 1 µM / activity at 10 µM: read-out: HATs Activity (%);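 on all read-outs here: selectivity screen of bromodomain probe compounds against histone acetyltransferases, with enzyme activity given in percent for compounds tested at 1 and 10 µM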
Sequence of EP300 (Q09472 whole entry, species assumed): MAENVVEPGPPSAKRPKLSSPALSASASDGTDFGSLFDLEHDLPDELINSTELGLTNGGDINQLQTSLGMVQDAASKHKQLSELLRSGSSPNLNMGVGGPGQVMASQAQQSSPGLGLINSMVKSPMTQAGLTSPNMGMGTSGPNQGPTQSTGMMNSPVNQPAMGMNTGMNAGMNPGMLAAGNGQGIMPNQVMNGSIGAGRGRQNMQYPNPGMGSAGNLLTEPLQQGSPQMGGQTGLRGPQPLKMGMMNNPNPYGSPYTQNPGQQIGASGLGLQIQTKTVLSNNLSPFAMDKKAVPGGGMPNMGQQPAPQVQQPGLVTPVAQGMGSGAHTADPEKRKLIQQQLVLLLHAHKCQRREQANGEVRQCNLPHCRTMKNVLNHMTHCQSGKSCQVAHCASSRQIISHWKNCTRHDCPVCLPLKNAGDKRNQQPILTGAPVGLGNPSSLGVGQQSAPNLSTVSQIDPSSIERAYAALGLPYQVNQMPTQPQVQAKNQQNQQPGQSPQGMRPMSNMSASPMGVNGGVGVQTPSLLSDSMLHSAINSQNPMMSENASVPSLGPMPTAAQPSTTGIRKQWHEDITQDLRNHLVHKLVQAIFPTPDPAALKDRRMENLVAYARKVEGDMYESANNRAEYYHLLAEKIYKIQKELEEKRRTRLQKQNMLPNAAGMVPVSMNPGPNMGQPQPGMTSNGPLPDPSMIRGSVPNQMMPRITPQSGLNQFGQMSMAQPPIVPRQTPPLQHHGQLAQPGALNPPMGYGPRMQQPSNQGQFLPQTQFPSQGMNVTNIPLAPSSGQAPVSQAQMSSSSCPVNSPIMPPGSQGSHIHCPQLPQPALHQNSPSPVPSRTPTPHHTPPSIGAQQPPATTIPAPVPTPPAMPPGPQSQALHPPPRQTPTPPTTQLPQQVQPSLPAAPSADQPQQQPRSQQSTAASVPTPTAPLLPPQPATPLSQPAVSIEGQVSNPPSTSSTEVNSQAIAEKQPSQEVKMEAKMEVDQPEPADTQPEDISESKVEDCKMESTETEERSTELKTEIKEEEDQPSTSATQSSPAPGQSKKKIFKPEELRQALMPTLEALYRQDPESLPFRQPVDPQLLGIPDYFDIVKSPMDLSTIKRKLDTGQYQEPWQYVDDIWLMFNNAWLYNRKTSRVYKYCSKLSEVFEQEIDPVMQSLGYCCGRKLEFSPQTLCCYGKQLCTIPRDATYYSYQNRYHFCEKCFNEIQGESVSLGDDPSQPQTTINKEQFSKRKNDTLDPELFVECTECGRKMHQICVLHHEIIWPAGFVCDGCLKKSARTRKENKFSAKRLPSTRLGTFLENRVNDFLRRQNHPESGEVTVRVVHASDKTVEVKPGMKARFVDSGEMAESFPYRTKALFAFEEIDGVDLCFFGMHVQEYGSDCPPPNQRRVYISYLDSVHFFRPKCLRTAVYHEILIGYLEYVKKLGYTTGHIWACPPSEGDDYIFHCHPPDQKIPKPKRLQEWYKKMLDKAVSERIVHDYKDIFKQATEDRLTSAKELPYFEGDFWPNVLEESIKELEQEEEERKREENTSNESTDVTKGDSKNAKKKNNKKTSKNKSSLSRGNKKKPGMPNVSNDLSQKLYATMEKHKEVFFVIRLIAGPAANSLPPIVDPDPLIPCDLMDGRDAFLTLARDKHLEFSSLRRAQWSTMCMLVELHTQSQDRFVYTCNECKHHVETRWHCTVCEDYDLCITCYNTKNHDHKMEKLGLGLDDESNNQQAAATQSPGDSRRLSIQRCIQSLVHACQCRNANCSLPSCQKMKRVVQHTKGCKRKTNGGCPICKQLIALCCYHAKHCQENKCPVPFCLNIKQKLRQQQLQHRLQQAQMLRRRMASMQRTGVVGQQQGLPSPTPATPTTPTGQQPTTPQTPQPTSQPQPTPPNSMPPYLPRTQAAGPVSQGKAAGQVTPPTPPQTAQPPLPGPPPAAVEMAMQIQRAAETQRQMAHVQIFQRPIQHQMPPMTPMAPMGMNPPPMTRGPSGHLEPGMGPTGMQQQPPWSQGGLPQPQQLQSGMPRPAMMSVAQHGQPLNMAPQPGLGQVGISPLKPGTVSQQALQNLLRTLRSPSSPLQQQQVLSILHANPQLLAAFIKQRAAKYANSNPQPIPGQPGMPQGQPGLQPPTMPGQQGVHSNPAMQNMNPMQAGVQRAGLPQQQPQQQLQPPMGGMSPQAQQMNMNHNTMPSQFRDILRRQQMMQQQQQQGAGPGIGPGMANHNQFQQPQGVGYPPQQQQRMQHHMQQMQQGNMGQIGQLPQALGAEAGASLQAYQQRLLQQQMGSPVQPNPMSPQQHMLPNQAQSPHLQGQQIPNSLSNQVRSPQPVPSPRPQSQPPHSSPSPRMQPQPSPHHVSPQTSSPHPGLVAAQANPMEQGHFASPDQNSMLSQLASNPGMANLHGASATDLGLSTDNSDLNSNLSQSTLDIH

HAT1 = biological target: T1, HAT1 (Homo sapiens, UniProt O14929); assay: Histone acetyltransferase (HAT) activity assay; conditions: for activity at 1 µM / activity at 10 µM: read-out: HATs Activity (%);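 on all read-outs here: HAT selectivity screen of BRD probe compounds, enzyme activity in % measured with compound at 1 µM and 10 µM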
T1 sequence (O14929 1-419): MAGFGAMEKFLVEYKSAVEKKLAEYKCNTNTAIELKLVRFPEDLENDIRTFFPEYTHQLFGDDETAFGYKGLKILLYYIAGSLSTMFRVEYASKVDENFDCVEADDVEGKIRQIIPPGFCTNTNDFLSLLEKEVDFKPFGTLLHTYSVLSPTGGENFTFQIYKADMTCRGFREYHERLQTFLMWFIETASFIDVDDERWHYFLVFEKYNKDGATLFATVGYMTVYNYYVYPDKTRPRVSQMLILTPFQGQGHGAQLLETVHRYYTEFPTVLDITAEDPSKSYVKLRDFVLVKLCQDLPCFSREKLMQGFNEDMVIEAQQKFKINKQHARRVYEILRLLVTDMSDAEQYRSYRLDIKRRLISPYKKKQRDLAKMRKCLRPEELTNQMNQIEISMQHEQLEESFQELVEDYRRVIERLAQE

MYST1 = biological target: T2, MYST1 (Homo sapiens, UniProt Q9H7Z6); assay: Histone acetyltransferase (HAT) activity assay; conditions: for activity at 1 µM / activity at 10 µM: read-out: HATs Activity (%);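 on all read-outs here: selectivity screen across a panel of histone acetyltransferases, with compounds tested at 1 and 10 µM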
T2 sequence (Q9H7Z6 1-458): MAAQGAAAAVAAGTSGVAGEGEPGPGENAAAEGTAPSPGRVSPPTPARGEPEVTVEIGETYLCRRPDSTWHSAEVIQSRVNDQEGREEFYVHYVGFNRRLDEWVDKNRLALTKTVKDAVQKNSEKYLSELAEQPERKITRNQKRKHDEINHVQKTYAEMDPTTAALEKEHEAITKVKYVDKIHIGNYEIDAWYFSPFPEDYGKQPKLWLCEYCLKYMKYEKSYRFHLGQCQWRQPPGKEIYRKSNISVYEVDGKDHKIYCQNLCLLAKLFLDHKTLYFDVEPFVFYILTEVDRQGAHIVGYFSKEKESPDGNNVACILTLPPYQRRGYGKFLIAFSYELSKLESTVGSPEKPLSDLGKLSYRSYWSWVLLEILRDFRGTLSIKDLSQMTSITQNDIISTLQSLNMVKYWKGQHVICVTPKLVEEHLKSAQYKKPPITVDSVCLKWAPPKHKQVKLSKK

MYST3 = MYST3 (Homo sapiens, UniProt Q92794); assay: Histone acetyltransferase (HAT) activity assay; conditions: for activity at 1 µM / activity at 10 µM: read-out: HATs Activity (%);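 on all read-outs here: selectivity screen of bromodomain probe compounds across a panel of histone acetyltransferases, read out as enzyme activity in %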
Sequence of MYST3 (Q92794 whole entry, species assumed): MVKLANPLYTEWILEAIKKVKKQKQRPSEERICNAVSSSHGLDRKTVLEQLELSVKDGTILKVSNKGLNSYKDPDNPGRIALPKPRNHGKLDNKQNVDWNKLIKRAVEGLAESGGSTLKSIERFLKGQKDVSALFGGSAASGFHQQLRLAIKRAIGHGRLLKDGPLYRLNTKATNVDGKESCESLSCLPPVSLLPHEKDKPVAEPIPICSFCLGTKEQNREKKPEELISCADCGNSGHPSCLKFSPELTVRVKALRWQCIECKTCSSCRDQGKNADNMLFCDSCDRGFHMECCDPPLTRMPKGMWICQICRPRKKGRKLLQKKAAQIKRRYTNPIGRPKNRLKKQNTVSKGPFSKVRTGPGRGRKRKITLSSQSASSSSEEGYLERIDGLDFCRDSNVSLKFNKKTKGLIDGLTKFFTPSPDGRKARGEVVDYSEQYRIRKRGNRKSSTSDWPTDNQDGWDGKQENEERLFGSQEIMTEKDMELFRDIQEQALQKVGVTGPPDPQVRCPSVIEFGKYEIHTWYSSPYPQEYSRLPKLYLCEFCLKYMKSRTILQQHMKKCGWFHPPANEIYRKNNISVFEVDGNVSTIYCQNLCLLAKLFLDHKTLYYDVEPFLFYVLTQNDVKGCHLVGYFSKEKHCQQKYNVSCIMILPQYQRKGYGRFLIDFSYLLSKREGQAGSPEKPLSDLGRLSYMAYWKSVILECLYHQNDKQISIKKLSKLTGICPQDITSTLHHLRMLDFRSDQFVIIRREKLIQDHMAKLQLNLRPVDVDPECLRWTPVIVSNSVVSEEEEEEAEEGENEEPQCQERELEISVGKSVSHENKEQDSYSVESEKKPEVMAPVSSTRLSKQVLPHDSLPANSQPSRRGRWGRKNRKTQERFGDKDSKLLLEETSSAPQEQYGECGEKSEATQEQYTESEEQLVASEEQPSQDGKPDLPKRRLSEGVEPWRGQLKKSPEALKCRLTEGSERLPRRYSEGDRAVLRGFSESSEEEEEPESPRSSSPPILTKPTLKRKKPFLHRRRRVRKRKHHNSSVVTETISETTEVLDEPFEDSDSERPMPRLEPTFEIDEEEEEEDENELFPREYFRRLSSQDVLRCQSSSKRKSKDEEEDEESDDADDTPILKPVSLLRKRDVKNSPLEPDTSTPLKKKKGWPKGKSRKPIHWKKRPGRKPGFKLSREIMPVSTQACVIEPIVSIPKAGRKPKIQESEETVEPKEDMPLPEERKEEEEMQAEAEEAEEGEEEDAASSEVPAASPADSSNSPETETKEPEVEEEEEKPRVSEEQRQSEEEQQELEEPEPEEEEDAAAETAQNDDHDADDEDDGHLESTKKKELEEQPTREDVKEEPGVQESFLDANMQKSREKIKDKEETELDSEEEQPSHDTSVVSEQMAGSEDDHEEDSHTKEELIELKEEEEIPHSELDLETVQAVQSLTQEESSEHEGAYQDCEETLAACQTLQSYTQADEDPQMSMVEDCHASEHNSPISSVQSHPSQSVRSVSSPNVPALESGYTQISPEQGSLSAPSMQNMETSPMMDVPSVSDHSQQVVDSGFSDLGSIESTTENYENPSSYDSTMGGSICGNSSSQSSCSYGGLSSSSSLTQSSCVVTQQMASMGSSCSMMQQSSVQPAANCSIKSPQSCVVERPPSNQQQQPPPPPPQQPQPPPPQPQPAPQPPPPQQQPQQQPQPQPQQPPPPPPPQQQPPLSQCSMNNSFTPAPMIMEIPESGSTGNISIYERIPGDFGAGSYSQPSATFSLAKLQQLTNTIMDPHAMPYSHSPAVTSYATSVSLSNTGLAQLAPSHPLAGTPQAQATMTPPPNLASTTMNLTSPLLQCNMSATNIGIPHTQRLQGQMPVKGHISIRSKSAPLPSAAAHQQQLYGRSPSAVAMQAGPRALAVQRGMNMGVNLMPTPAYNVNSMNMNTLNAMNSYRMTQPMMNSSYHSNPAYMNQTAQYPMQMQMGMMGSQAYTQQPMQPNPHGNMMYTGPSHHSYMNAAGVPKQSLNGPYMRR

GCN5L2 = GCN5L2 (Homo sapiens, UniProt Q92830); assay: Histone acetyltransferase (HAT) activity assay; conditions: for activity at 1 µM / activity at 10 µM: read-out: HATs Activity (%);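 on all read-outs here: selectivity screen of BRD probe compounds across a panel of histone acetyltransferases, HAT activity in % with compound at 1 or 10 µM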
DNMT3B/3L = biological target: T3, DNMT3B/3L (Homo sapiens, UniProt Q9UBC3); assay: Methyl transferase scintillation proximity assay; conditions: average of two measurements; for inhibition at 10 µM: read-out: MTases Inhibition (%)
T3 construct: purchased DiscoverX BROMOscan (bromodomains); SGC in-house methyltransferase panel
Procedure: (§1) Assays measuring lysine and arginine methyl transferase activity have been described in Scheer et al.. A radioactivity-based scintillation proximity assay was used to monitor incorporation of a tritium-labeled methyl group into the biotinylated substrate of the methyl transferase. A 10-μl reaction containing ^3H-SAM and substrate at concentrations close to the apparent Km values for each enzyme was prepared. The reactions were quenched with 10 μl of 7.5 M guanidine hydrochloride; 180 μl of 20 mM Tris buffer (pH 8.0) were added; and the mixture was transferred to a 96-well FlashPlate and incubated for 1 h. The counts per minute (CPM) was measured on a TopCount plate reader. The CPM in the absence of compound or enzyme was defined as 100% activity and background (0%), respectively, for each dataset.

MLL1 (Trimeric) = biological target: T4, MLL1 (Trimeric) (Homo sapiens, UniProt Q03164); assay: Methyl transferase scintillation proximity assay; conditions: average of two measurements; for inhibition at 10 µM: read-out: MTases Inhibition (%)
T4 construct: purchased DiscoverX BROMOscan (bromodomains); SGC in-house methyltransferase panel
Procedure: as §1

PRC2-EZH1 = biological target: T5, PRC2-EZH1 (Homo sapiens, UniProt Q92800); assay: Methyl transferase scintillation proximity assay; conditions: average of two measurements; for inhibition at 10 µM: read-out: MTases Inhibition (%)
T5 construct: purchased DiscoverX BROMOscan (bromodomains); SGC in-house methyltransferase panel
Procedure: as §1

PRC2-EZH2 = biological target: T6, PRC2-EZH2 (Homo sapiens, UniProt Q15910); assay: Methyl transferase scintillation proximity assay; conditions: average of two measurements; for inhibition at 10 µM: read-out: MTases Inhibition (%)
T6 construct: purchased DiscoverX BROMOscan (bromodomains); SGC in-house methyltransferase panel
Procedure: as §1

PRMT1 = biological target: T7, PRMT1 (Homo sapiens, UniProt Q99873); assay: Methyl transferase scintillation proximity assay; conditions: average of two measurements; for inhibition at 10 µM: read-out: MTases Inhibition (%)
T7 construct: purchased DiscoverX BROMOscan (bromodomains); SGC in-house methyltransferase panel
T7 sequence (Q99873 whole entry): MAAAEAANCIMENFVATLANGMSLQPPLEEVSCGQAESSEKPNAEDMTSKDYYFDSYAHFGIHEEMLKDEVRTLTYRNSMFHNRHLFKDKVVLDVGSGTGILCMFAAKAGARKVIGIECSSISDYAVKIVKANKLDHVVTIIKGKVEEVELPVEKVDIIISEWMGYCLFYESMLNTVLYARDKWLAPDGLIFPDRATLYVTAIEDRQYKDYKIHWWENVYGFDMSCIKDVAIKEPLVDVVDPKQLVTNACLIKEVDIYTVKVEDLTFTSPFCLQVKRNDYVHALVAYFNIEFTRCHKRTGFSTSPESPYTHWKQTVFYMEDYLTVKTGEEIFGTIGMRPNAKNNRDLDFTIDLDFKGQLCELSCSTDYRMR
Procedure: as §1

PRMT6 = biological target: T8, PRMT6 (Homo sapiens, UniProt Q96LA8); assay: Methyl transferase scintillation proximity assay; conditions: average of two measurements; for inhibition at 10 µM: read-out: MTases Inhibition (%)
T8 construct: purchased DiscoverX BROMOscan (bromodomains); SGC in-house methyltransferase panel
Procedure: as §1

PRMT7 = biological target: T9, PRMT7 (Homo sapiens, UniProt Q9NVM4); assay: Methyl transferase scintillation proximity assay; conditions: average of two measurements; for inhibition at 10 µM: read-out: MTases Inhibition (%)
T9 construct: purchased DiscoverX BROMOscan (bromodomains); SGC in-house methyltransferase panel
T9 sequence (Q9NVM4 1-692): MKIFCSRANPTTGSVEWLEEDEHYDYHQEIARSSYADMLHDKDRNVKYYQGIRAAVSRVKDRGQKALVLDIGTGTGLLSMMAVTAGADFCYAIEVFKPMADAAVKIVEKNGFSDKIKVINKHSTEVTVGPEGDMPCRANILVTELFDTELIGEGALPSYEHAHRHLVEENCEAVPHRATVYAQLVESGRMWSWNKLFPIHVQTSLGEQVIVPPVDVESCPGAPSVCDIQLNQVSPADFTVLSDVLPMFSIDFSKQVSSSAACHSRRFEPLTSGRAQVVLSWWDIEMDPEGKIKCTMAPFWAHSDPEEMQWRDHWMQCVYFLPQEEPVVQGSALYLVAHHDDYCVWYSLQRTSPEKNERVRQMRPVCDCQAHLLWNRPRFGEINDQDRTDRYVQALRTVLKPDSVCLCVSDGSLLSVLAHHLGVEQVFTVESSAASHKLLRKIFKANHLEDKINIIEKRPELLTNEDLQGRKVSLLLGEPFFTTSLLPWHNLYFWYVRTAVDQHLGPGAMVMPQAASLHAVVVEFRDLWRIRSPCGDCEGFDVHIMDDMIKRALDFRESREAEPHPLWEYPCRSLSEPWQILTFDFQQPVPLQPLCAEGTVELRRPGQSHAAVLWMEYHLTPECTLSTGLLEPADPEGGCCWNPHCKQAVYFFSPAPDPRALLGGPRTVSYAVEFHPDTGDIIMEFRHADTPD
Procedure: as §1

SETDB1 = biological target: T10, SETDB1 (Homo sapiens, UniProt Q15047); assay: Methyl transferase scintillation proximity assay; conditions: average of two measurements; for inhibition at 10 µM: read-out: MTases Inhibition (%)
T10 construct: purchased DiscoverX BROMOscan (bromodomains); SGC in-house methyltransferase panel
Procedure: as §1

SUV39H2 = biological target: T11, SUV39H2 (Homo sapiens, UniProt Q9H5I1); assay: Methyl transferase scintillation proximity assay; conditions: average of two measurements; for inhibition at 10 µM: read-out: MTases Inhibition (%)
T11 construct: purchased DiscoverX BROMOscan (bromodomains); SGC in-house methyltransferase panel
Procedure: as §1

SUV420H1 = biological target: T12, SUV420H1 (Homo sapiens, UniProt Q4FZB7); assay: Methyl transferase scintillation proximity assay; conditions: average of two measurements; for inhibition at 10 µM: read-out: MTases Inhibition (%)
T12 construct: purchased DiscoverX BROMOscan (bromodomains); SGC in-house methyltransferase panel
Procedure: as §1

activity at 1 µM (EP300; 1µM) [%] | activity at 10 µM (EP300; 10µM) [%] | activity at 1 µM (HAT1; 1µM) [%] | activity at 10 µM (HAT1; 10µM) [%] | activity at 1 µM (MYST1; 1µM) [%] | activity at 10 µM (MYST1; 10µM) [%] | activity at 1 µM (MYST3; 1µM) [%] | activity at 10 µM (MYST3; 10µM) [%] | activity at 1 µM (GCN5L2; 1µM) [%] | activity at 10 µM (GCN5L2; 10µM) [%] | inhibition at 10 µM (DNMT3B/3L) [%] | inhibition at 10 µM (MLL1 (Trimeric)) [%] | inhibition at 10 µM (PRC2-EZH1) [%] | inhibition at 10 µM (PRC2-EZH2) [%] | inhibition at 10 µM (PRMT1) [%] | inhibition at 10 µM (PRMT6) [%] | inhibition at 10 µM (PRMT7) [%] | inhibition at 10 µM (SETDB1) [%] | inhibition at 10 µM (SUV39H2) [%] | inhibition at 10 µM (SUV420H1) [%] | SMILES | also measured
94 | 90 | 100 | 95 | 97 | 96 | 92 | 90 | 99 | 95 | -1 | 20 | 5 | -4 | -2 | 5 | 8 | 1 | 5 | 4 | Cc1nnc2c3ccccc3c(N[C@@H](C)[C@H](c3ccccc3)N(C)C)nn12 [L-Moses] | –
– | – | – | – | – | – | – | – | – | – | – | – | – | – | – | – | – | – | – | – | COc1ccccc1C(=O)Nc1cc2c(cc1N1CCNC[C@H]1C)n(C)c(=O)n2C [GSK6853] | HATs Activity (%) (EP300; 1µM): 98%; HATs Activity (%) (EP300; 10µM): 104%; HATs Activity (%) (HAT1; 1µM): 100%; HATs Activity (%) (HAT1; 10µM): 94%; HATs Activity (%) (MYST1; 1µM): 99%; HATs Activity (%) (MYST1; 10µM): 101%; HATs Activity (%) (MYST3; 1µM): 107%; HATs Activity (%) (MYST3; 10µM): 104%; HATs Activity (%) (GCN5L2; 1µM): 107%; HATs Activity (%) (GCN5L2; 10µM): 107%; MTases Inhibition (%) (DNMT3B/3L; 10µM): 8%; MTases Inhibition (%) (MLL1 (Trimeric); 10µM): 7%; MTases Inhibition (%) (PRC2-EZH1; 10µM): 1%; MTases Inhibition (%) (PRC2-EZH2; 10µM): 0%; MTases Inhibition (%) (PRMT1; 10µM): -7%; MTases Inhibition (%) (PRMT6; 10µM): 5%; MTases Inhibition (%) (PRMT7; 10µM): 11%; MTases Inhibition (%) (SETDB1; 10µM): 1%; MTases Inhibition (%) (SUV39H2; 10µM): 1%; MTases Inhibition (%) (SUV420H1; 10µM): 5%
103 | 99 | 99 | 97 | 100 | 93 | 99 | 96 | 94 | 95 | -6 | 7 | 3 | 3 | 0 | 4 | 13 | 5 | 12 | -5 | Cc1c(NC(=O)c2cc(C(N)=O)nc3cc(F)ccc23)c(C(F)(F)F)nn1Cc1ccc(C(C)(C)C)cc1 [BAY-588] | –
93 | 90 | 102 | 89 | 102 | 98 | 101 | 101 | 99 | 102 | 1 | 8 | -1 | -5 | 4 | 6 | 15 | -1 | 5 | 8 | CN1C[C@H](Nc2cnn(C)c(=O)c2Br)C[C@H](c2ccccc2)C1 [GSK4027] | –
